Measurements from PubChem BioAssay AID2060890 (Molecular Pharmacology Branch, DTP, NCI, 2025).
Values belong to the molecule of their own block, whether it stands above or below them.

System: LG0703-F948-PDC complex spheroid viability
Assay: Anticancer human tumor LG0703-F948-PDC patient-derived lung adenocarcinoma cell line growth inhibition [RAS]
Settings: for viability, T/C: stronger effect = lower value
Method in brief: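 Multi-cell-type spheroids: tumor cells plus HUVEC endothelial cells and mesenchymal stem cells. RAS-pathway inhibitors were combined with targeted agents, each dosed in half-log steps down from clinical Cmax, or from 10 microM when Cmax was unknown.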

[1] = curve of first compound, second compound 0.000949 µM
[2] = curve of first compound, second compound 0.003 µM
[3] = curve of first compound, second compound 0.00949 µM
[4] = curve of first compound, second compound 0.03 µM
[5] = curve of first compound, second compound 0.0949 µM
[6] = curve of first compound, second compound 0.3 µM
[7] = second compound 0.000949 µM, first compound 0.0316 µM
[8] = second compound 0.000949 µM, first compound 0.1 µM
[9] = second compound 0.000949 µM, first compound 0.316 µM
[10] = second compound 0.000949 µM, first compound 1 µM
[11] = second compound 0.003 µM, first compound 0.0316 µM
[12] = second compound 0.003 µM, first compound 0.1 µM
[13] = second compound 0.003 µM, first compound 0.316 µM
[14] = second compound 0.003 µM, first compound 1 µM
[15] = second compound 0.00949 µM, first compound 0.0316 µM
[16] = second compound 0.00949 µM, first compound 0.1 µM
[17] = second compound 0.00949 µM, first compound 0.316 µM
[18] = second compound 0.00949 µM, first compound 1 µM
[19] = second compound 0.03 µM, first compound 0.0316 µM
[20] = second compound 0.03 µM, first compound 0.1 µM
[21] = second compound 0.03 µM, first compound 0.316 µM
[22] = second compound 0.03 µM, first compound 1 µM
[23] = second compound 0.0949 µM, first compound 0.0316 µM
[24] = second compound 0.0949 µM, first compound 0.1 µM
[25] = second compound 0.0949 µM, first compound 0.316 µM
[26] = second compound 0.0949 µM, first compound 1 µM
[27] = second compound 0.3 µM, first compound 0.0316 µM
[28] = second compound 0.3 µM, first compound 0.1 µM
[29] = second compound 0.3 µM, first compound 0.316 µM
[30] = second compound 0.3 µM, first compound 1 µM
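Also: spheroids exposed to agents for 7 days.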
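For viability, T/C in this document: 100% = DMSO vehicle wells.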

IC50 [1]: 548 nM
IC50 [2]: 337 nM
IC50 [3]: 402 nM
IC50 [4]: 390 nM
IC50 [5]: 140 nM
IC50 [6]: < 31.6 nM
SMILES: Cc1nc(N2CCC3(CC2)COC(C)C3N)c(CO)nc1Sc1ccnc(N)c1Cl (stereo not drawn) + CCn1c(-c2cccnc2C(C)OC)c2c3cc(ccc31)N1CCOC(CC(NC(=O)C(C(C)C)N(C)C(=O)C3(F)CCN(C(=O)C#CC(C)(C)N(C)C)CC3)C(=O)N3CCCC(N3)C(=O)OCC(C)(C)C2)C1
viability, T/C [7]: 100%
viability, T/C [8]: 68.4%
viability, T/C [9]: 61.6%
viability, T/C [10]: 43.1%
viability, T/C (second compound 0.000949 µM, first compound 3.16 µM): 24.8%
viability, T/C (second compound 0.000949 µM, first compound 10 µM): 13%
viability, T/C [11]: 87.8%
viability, T/C [12]: 76%
viability, T/C [13]: 47.8%
viability, T/C [14]: 31.7%
viability, T/C (second compound 0.003 µM, first compound 3.16 µM): 24.4%
viability, T/C (second compound 0.003 µM, first compound 10 µM): 11.9%
viability, T/C [15]: 93.1%
viability, T/C [16]: 74.8%
viability, T/C [17]: 52.7%
viability, T/C [18]: 36.9%
viability, T/C (second compound 0.00949 µM, first compound 3.16 µM): 21.5%
viability, T/C (second compound 0.00949 µM, first compound 10 µM): 13.6%
viability, T/C [19]: 70.2%
viability, T/C [20]: 58.6%
viability, T/C [21]: 52.1%
viability, T/C [22]: 42.4%
viability, T/C (second compound 0.03 µM, first compound 3.16 µM): 16.9%
viability, T/C (second compound 0.03 µM, first compound 10 µM): 12.7%
viability, T/C [23]: 73.2%
viability, T/C [24]: 56.8%
viability, T/C [25]: 35.2%
viability, T/C [26]: 23.2%
viability, T/C (second compound 0.0949 µM, first compound 3.16 µM): 13.5%
viability, T/C (second compound 0.0949 µM, first compound 10 µM): 5.55%
viability, T/C [27]: 34.1%
viability, T/C [28]: 26.7%
viability, T/C [29]: 22.8%
viability, T/C [30]: 14.3%
viability, T/C (second compound 0.3 µM, first compound 3.16 µM): 6.25%
viability, T/C (second compound 0.3 µM, first compound 10 µM): 3.6%

IC50 (curve of first compound, second compound 0.00316 µM): > 10000 nM
IC50 (curve of first compound, second compound 0.01 µM): > 10000 nM
IC50 (curve of first compound, second compound 0.0316 µM): > 10000 nM
IC50 (curve of first compound, second compound 0.1 µM): > 10000 nM
IC50 (curve of first compound, second compound 0.316 µM): > 10000 nM
IC50 (curve of first compound, second compound 1 µM): > 10000 nM
SMILES: C[C@@H](NC(=O)c1ncnc(N)c1Cl)c1ncc(C(=O)Nc2cc(C(F)(F)F)c(Cl)cn2)s1 + C=CC(=O)N1CCN(c2nc(OCC3CCCN3C)nc3c(F)c(-c4nc(N)cc(C)c4C(F)(F)F)c(Cl)cc23)C(C)C1
viability, T/C (second compound 0.00316 µM, first compound 0.0316 µM): 99.4%
viability, T/C (second compound 0.00316 µM, first compound 0.1 µM): 100%
viability, T/C (second compound 0.00316 µM, first compound 0.316 µM): 107%
viability, T/C (second compound 0.00316 µM, first compound 1 µM): 110%
viability, T/C (second compound 0.00316 µM, first compound 3.16 µM): 104%
viability, T/C (second compound 0.00316 µM, first compound 10 µM): 93%
viability, T/C (second compound 0.01 µM, first compound 0.0316 µM): 113%
viability, T/C (second compound 0.01 µM, first compound 0.1 µM): 103%
viability, T/C (second compound 0.01 µM, first compound 0.316 µM): 107%
viability, T/C (second compound 0.01 µM, first compound 1 µM): 111%
viability, T/C (second compound 0.01 µM, first compound 3.16 µM): 109%
viability, T/C (second compound 0.01 µM, first compound 10 µM): 97.2%
viability, T/C (second compound 0.0316 µM, first compound 0.0316 µM): 103%
viability, T/C (second compound 0.0316 µM, first compound 0.1 µM): 109%
viability, T/C (second compound 0.0316 µM, first compound 0.316 µM): 95.8%
viability, T/C (second compound 0.0316 µM, first compound 1 µM): 102%
viability, T/C (second compound 0.0316 µM, first compound 3.16 µM): 121%
viability, T/C (second compound 0.0316 µM, first compound 10 µM): 95.2%
viability, T/C (second compound 0.1 µM, first compound 0.0316 µM): 106%
viability, T/C (second compound 0.1 µM, first compound 0.1 µM): 109%
viability, T/C (second compound 0.1 µM, first compound 0.316 µM): 113%
viability, T/C (second compound 0.1 µM, first compound 1 µM): 109%
viability, T/C (second compound 0.1 µM, first compound 3.16 µM): 118%
viability, T/C (second compound 0.1 µM, first compound 10 µM): 95.2%
viability, T/C (second compound 0.316 µM, first compound 0.0316 µM): 118%
viability, T/C (second compound 0.316 µM, first compound 0.1 µM): 105%
viability, T/C (second compound 0.316 µM, first compound 0.316 µM): 108%
viability, T/C (second compound 0.316 µM, first compound 1 µM): 114%
viability, T/C (second compound 0.316 µM, first compound 3.16 µM): 117%
viability, T/C (second compound 0.316 µM, first compound 10 µM): 100%
viability, T/C (second compound 1 µM, first compound 0.0316 µM): 115%
viability, T/C (second compound 1 µM, first compound 0.1 µM): 116%
viability, T/C (second compound 1 µM, first compound 0.316 µM): 118%
viability, T/C (second compound 1 µM, first compound 1 µM): 132%
viability, T/C (second compound 1 µM, first compound 3.16 µM): 129%
viability, T/C (second compound 1 µM, first compound 10 µM): 98.3%

IC50 (curve of compound): > 300 nM
SMILES: CC1(C)CCC(Nc2ncc(C(F)(F)F)c(-c3c[nH]c4c(P(C)(C)=O)c(C#N)ccc34)n2)CN1 (stereo not drawn)
viability, T/C (compound 0.000949 µM): 91% [middle of 4 runs]
viability, T/C (compound 0.003 µM): 76.9% [middle of 4 runs]
viability, T/C (compound 0.00949 µM): 68.7% [middle of 4 runs]
viability, T/C (compound 0.03 µM): 67.9% [middle of 4 runs]
viability, T/C (compound 0.0949 µM): 65.8% [middle of 4 runs]
viability, T/C (compound 0.3 µM): 67.9% [middle of 4 runs]

IC50 [1]: 79.9 nM
IC50 [2]: 63.9 nM
IC50 [3]: 87.3 nM
IC50 [4]: 65.1 nM
IC50 [5]: 22.7 nM
IC50 [6]: < 3.16 nM
SMILES: O=C(c1ccc(F)c(F)c1Nc1ccc(I)cc1F)N1CC(O)([C@@H]2CCCCN2)C1 + CCn1c(-c2cccnc2C(C)OC)c2c3cc(ccc31)N1CCOC(CC(NC(=O)C(C(C)C)N(C)C(=O)C3(F)CCN(C(=O)C#CC(C)(C)N(C)C)CC3)C(=O)N3CCCC(N3)C(=O)OCC(C)(C)C2)C1
viability, T/C (second compound 0.000949 µM, first compound 0.00316 µM): 93.7%
viability, T/C (second compound 0.000949 µM, first compound 0.01 µM): 93.3%
viability, T/C [7]: 64.2%
viability, T/C [8]: 48.2%
viability, T/C [9]: 33.4%
viability, T/C [10]: 28.2%
viability, T/C (second compound 0.003 µM, first compound 0.00316 µM): 97.1%
viability, T/C (second compound 0.003 µM, first compound 0.01 µM): 79.8%
viability, T/C [11]: 60.5%
viability, T/C [12]: 40.7%
viability, T/C [13]: 38.4%
viability, T/C [14]: 27.2%
viability, T/C (second compound 0.00949 µM, first compound 0.00316 µM): 87.3%
viability, T/C (second compound 0.00949 µM, first compound 0.01 µM): 88.3%
viability, T/C [15]: 70%
viability, T/C [16]: 46.9%
viability, T/C [17]: 30.6%
viability, T/C [18]: 21.6%
viability, T/C (second compound 0.03 µM, first compound 0.00316 µM): 96.2%
viability, T/C (second compound 0.03 µM, first compound 0.01 µM): 76.1%
viability, T/C [19]: 60.9%
viability, T/C [20]: 42.7%
viability, T/C [21]: 33.1%
viability, T/C [22]: 21.9%
viability, T/C (second compound 0.0949 µM, first compound 0.00316 µM): 69.4%
viability, T/C (second compound 0.0949 µM, first compound 0.01 µM): 61%
viability, T/C [23]: 44.2%
viability, T/C [24]: 33.5%
viability, T/C [25]: 20.9%
viability, T/C [26]: 12.4%
viability, T/C (second compound 0.3 µM, first compound 0.00316 µM): 41.6%
viability, T/C (second compound 0.3 µM, first compound 0.01 µM): 35.4%
viability, T/C [27]: 24%
viability, T/C [28]: 13.1%
viability, T/C [29]: 13.1%
viability, T/C [30]: 5.27%
